The values that follow come from patent US20090069384A1, “THIENOPYRROLES USEFUL IN THE TREATMENT OF INFLAMMATION” (BIOLIPOX AB, priority 2005, published 2009).

This assay deals with T1, mPGES-1 (Homo sapiens, UniProt O14684).
T1 construct: made in house; host or cells: E. coli (membrane fraction)
T1 sequence (O14684 1-152): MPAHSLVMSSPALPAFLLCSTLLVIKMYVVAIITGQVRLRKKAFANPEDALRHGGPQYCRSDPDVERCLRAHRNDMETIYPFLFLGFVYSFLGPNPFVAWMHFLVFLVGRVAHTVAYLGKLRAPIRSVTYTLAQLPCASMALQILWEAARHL
Put plainly: mPGES-1 inhibition assay (conversion of PGH2 to PGE2, HPLC analysis). Type of assay: biochemical. The settings on record: mPGES-1 expressed in E. coli, membrane fraction; room temperature; PGH2 substrate, 60 seconds. As for the experimental part: In the assay mPGES-1 catalyses the reaction where the substrate PGH2 is converted to PGE2. mPGES-1 is expressed in E. coli and the membrane fraction is dissolved in 20 mM NaPi-buffer pH 8.0 and stored at −80° C. […] The stop solution consists of H2O/MeCN (7/3), containing FeCl2 (25 mM) and HCl (0.15 M). The assay is performed at room temperature in 96-well plates.
The following is added chronologically to each well: • 1. 100 uL mPGES-1 in KPi-buffer with glutathione. Total protein concentration: 0.02 mg/mL. • 2. 1 μL inhibitor in DMSO. Incubation of the plate at room temperature for 25 minutes. • 3. 4 μL of a 0.25 mM PGH2 solution. Incubation of the plate at room temperature for 60 seconds. • 4. 100 μL stop solution. • 180 μL per sample is analyzed with HPLC.

As to `CC(C)(C)c1ccc(-c2cc3c(s2)c(-c2ccc(C(C)(C)C)cc2)c(C(=O)O)n3Cc2cccc(Cl)c2)cc1` [Example 2, 2,6-Bis-(4-tert-butylphenyl)-4-(3-chlorobenzyl)thieno[3,2-b]pyrrole-5-carboxylic Acid], the 50% inhibitory concentration (IC50) came to 0.39 µM. `Cc1ccc(-c2cc3c(s2)c(I)c(C(=O)O)n3Cc2cccc(Cl)c2)s1` [Example 4, 4-(3-Chlorobenzyl)-6-iodo-2-(5-methylthien-2-yl)thieno[3,2-b]pyrrole-5-carboxylic Acid] showed an IC50 of 1.3 µM.

Regarding `Cc1ccc(-n2c(C(=O)O)cc3sc(-c4ccc(OC(C)C)cc4)cc32)cc1[N+](=O)[O-]` [Example 28, 2-(4-Isopropoxyphenyl)-4-(4-methyl-3-nitrophenyl)thieno[3,2-b]pyrrole-5-carboxylic Acid], half-maximal inhibition (IC50) was put at 5.1 µM. Next, `CC(C)Oc1ccc(-c2cc3cc(C(=O)O)n(Cc4cccc(Cl)c4)c3s2)cc1` [Example 35, 6-(3-Chlorobenzyl)-2-(4-isopropoxyphenyl)-6H-thieno[2,3-b]pyrrole-5-carboxylic Acid]: 4.7 µM.

In general, IC50 refers to the concentration that inhibits the measured activity by half.
